Data: ChEMBL document CHEMBL3232817, “Structural elucidation and synthesis of vialinin C, a new inhibitor of TNF-α production” (Bioorg Med Chem, 2014)

System: RBL-2H3
Test: Inhibition of TNF-alpha production in rat RBL2H3 cells
Assay type: functional, cell-based

Structure (SMILES)	IC50 [nM]
O=C(Oc1c(-c2ccc(O)cc2)c(O)c2oc3cc(O)c(O)cc3c2c1OC(=O)c1ccc(O)cc1)c1ccc(O)cc1	890
O=C(Oc1c(OC(=O)c2ccc(O)cc2)c(-c2ccc(O)cc2)c(O)c(O)c1-c1ccc(O)cc1)c1ccc(O)cc1	3.5
O=C(Cc1ccccc1)Oc1c(OC(=O)Cc2ccccc2)c(-c2ccc(O)cc2)c(O)c(O)c1-c1ccc(O)cc1 [VIALININ A]	0.25
O=C(Cc1ccccc1)Oc1c(-c2ccc(O)cc2)c(O)c2oc3cc(O)c(O)cc3c2c1OC(=O)Cc1ccccc1 [VIALININ B]	0.05
